The text below walks through data of publication PMC6804157, “Synthesis, Physicochemical Properties, and Biological Activities of 4-(S-Methyl-N-(2,2,2-Trifluoroacetyl)Sulfilimidoyl) Anthranilic Diamide” (Molecules, 2019).

SMILES strings stand for the structures. Several values for one entry are separate records, joined by “and”; a condition that tells them apart may be missing. Equal entries are not always repeated. Where two headings read alike, the source gives them in different places.

What is called solubility is how much of the substance goes into solution per volume.

Data set [1] has as its system third instar larvae of Spodoptera litura. The data set can be described thus: whole plant or invertebrate. Type of data set: in vivo. Conditions: for mortality at 25 ppm / mortality at 50 ppm: Spodoptera litura. On the procedure:
For the practical test, newly-prepared compounds 14–16 were evaluated for their insecticidal activities against the third instar larvae of Spodoptera litura according to the reported leaf-dip method.
[35] According to the literature 3a, 3b, and 3d methods, the insecticidal assays were performed by Kyung Nong Co. Ltd., Korea. In detail, please see the Supplementary materials.
Table S1 and S2: Larvicidal activity against Spodoptera (14 and 15a)
The lavicidal activities of synthesized compounds were evaluated by the leaf-dip procedure. 6 The aqueous solution of prepared compounds and chlorantraniliprole in acetone (H 2O : acetone = 95 : 5) were sprayed to a cabbage leave placed on moistened filter paper (disc, diameter 8.8 cm) in petri dishes. After allowing to dry, the dishes were infested with 10 Spodoptera litura (third-instar). After 1, 2, 3, and 4 days, percentage of mortalities was evaluated. The treatments were replicated three times. For negative control, larvicidal activities were 0 % at each time. Ref. is chlorantraniliprole as a positive control.
Table S1. Larvicidal activity depend on time against the 3 rd instar larvae of Spodoptera litura
Entry Compd Concentration Larvicidal activity (%) at 24 h
Entry Compd Concentration Larvicidal activity (%) at 48 h

Data set [2] is classed as in vitro ADME. The settings on record: PAMPA. As for the experimental part: (§1) Because we believed that the physicochemical properties of newly-prepared diamides play important roles in their insecticidal activities, the studies were extended to investigate the bioavailability of organosulfur-based crop-protecting agents 14, 15a, 15b, 16a, and 16b in terms of plant systemic properties and membrane permeability. As references, their properties of chlorantraniliprole and cyantraniliprole were also measured.
(§2) [37] The physicochemical measurements for determinations of equilibrium solubility, log P, and PAMPA permeability were performed by Drug Discovery Platform Technology Team, KRICT, Korea.
(§3) Table S3. Physical properties of organosulfur-substituted anthranilic […]
(§4) Entry X Y Log P c,d Permeability e […]
(§5) aMethod for determination of equilibrium solubility: μSOL 25; bat 25 ℃ and pH 7.4; cUsing ACD / Labs T3 method (pH – metric); dfor graphs, please see the supporting information, eMethod for determination of […]

Data set [3] in a line: Equilibrium solubility (μSOL). The settings on record: 25 °C, thermodynamic from solid. Type of data set: physicochemical. On the procedure:
as §1, §2, §3, §4, §5

Data set [4] is described as follows: pH-metric log P (ACD/Labs T3 method). The data set is classed as physicochemical. On the procedure:
as §1
[39] For LogP, Using ACD/Labs T3 method (pH—metric), for graphs; please see the Supplementary materials.
as §3, §4, §5

Setting [5] is: read-out: Larvicidal Activity (%) at Time (h) 72 h, third instar larvae of S. litura, 72 h, concentration of 14 and 15a 50 ppm.
Setting [6] is: read-out: Larvicidal Activity (%) at Time (h) 96 h, third instar larvae of S. litura, 96 h, concentration of 14 and 15a 50 ppm.
The mark [7] stands for this setting: third instar larvae of S. litura, 96 h, concentration of 14 and 15a 50 ppm.

Consider `CNC(=O)c1cc(Cl)cc(C)c1NC(=O)c1cc(Br)nn1-c1ncccc1Cl` [Chlorantraniliprole, chlorantraniliprole, reference compound], for which the “Eating area (%)” value in data set [1] (25 ppm) is recorded as 0–5%. Besides, the mortality at 25 ppm in data set [1] (24 h, read-out: Larvicidal activity (%) at 24 h, replicate 2, 24 h, 25 ppm) worked out at 30%; in data set [1] (48 h, read-out: Larvicidal activity (%) at 48 h, Average, 48 h, 25 ppm, average of three replicates), 86.7%; in data set [1] (48 h, read-out: Larvicidal activity (%) at 48 h, replicate 1, 48 h, 25 ppm) it was 90%; in data set [1] (48 h, read-out: Larvicidal activity (%) at 48 h, replicate 2, 48 h, 25 ppm), 80%; in data set [1] (48 h, read-out: Larvicidal activity (%) at 48 h, replicate 3, 48 h, 25 ppm) it was 90%; in data set [1] (72 h, read-out: Larvicidal activity (%) at 72 h, Average, 72 h, 25 ppm, average of three replicates), 100%. Besides, the mortality at 25 ppm came out at 100% in data set [1] (72 h, read-out: Larvicidal activity (%) at 72 h, replicate 1, 72 h, 25 ppm); 100% in data set [1] (72 h, read-out: Larvicidal activity (%) at 72 h, replicate 2, 72 h, 25 ppm); 100% in data set [1] (72 h, read-out: Larvicidal activity (%) at 72 h, replicate 3, 72 h, 25 ppm); 100% in data set [1] (96 h, read-out: Larvicidal activity (%) at 96 h, Average, 96 h, 25 ppm, average of three replicates); 100% in data set [1] (96 h, read-out: Larvicidal activity (%) at 96 h, replicate 1, 96 h, 25 ppm); 100% in data set [1] (96 h, read-out: Larvicidal activity (%) at 96 h, replicate 2, 96 h, 25 ppm). In addition, the mortality at 25 ppm in data set [1] (96 h, read-out: Larvicidal activity (%) at 96 h, replicate 3, 96 h, 25 ppm) worked out at 100%. Moreover, the mortality in data set [1] (read-out: Larvicidal activity (%) at 24 h, replicate 2, 24 h, 25 ppm, listed as Ref.) stood at 20%; in data set [1] (read-out: Larvicidal activity (%) at 48 h, Average, 48 h, 25 ppm, average of three replicates, listed as Ref.), 66.7%; in data set [1] (read-out: Larvicidal activity (%) at 48 h, replicate 2, 48 h, 25 ppm, listed as Ref.), 70%; in data set [1] (read-out: Larvicidal activity (%) at 72 h, Average, 72 h, 25 ppm, average of three replicates) it was 100%; in data set [1] (read-out: Larvicidal activity (%) at 72 h, replicate 1, 72 h, 25 ppm), 100%; in data set [1] (read-out: Larvicidal activity (%) at 72 h, replicate 2, 72 h, 25 ppm), 100%. In addition, the mortality was 100% in data set [1] (read-out: Larvicidal activity (%) at 72 h, replicate 3, 72 h, 25 ppm); 100% in data set [1] (read-out: Larvicidal activity (%) at 96 h, Average, 96 h, 25 ppm, average of three replicates); 100% in data set [1] (read-out: Larvicidal activity (%) at 96 h, replicate 1, 96 h, 25 ppm); 100% in data set [1] (read-out: Larvicidal activity (%) at 96 h, replicate 2, 96 h, 25 ppm); 100% in data set [1] (read-out: Larvicidal activity (%) at 96 h, replicate 3, 96 h, 25 ppm). Further, the Permeability result in data set [2] was “- 4.3 ± 0.046”. Also, the solubility in data set [3] (aqueous buffer, μSOL, at 25 ℃ and pH 7.4, read-out: Solubility (Equilibrium)) was found to be 21.5 ± 1.59 µM; in data set [3] (pH 7.4, aqueous buffer) it was 10.4 ± 0.771 µg/mL. Moreover, the logP in data set [4] (ACD/Labs T3 method (pH-metric), read-out: Log P) is 5.25.

As for `CNC(=O)c1cc(C#N)cc(C)c1NC(=O)c1cc(Br)nn1-c1ncccc1Cl` [Cyantraniliprole, cyantraniliprole, reference compound], the Permeability result in data set [2] is listed as “- 4.4 ± 0.077”. The solubility in data set [3] (pH 7.4, aqueous buffer) is 378 µM and 179 µg/mL. Further, the logP in data set [4] was 3.5.

For the molecule `CNC(=O)c1cc([S+](C)[O-])cc(C)c1NC(=O)c1cc(Br)nn1-c1ncccc1Cl` (stereo not shown) [Compound 15b, 3-bromo-1-(3-chloropyridin-2-yl)-N-(2-methyl-6-(methylcarbamoyl)-4-(methylsulfinyl)phenyl)-1H-pyrazole-5-carboxamide], the mortality in data set [1] (setting [5]) and in data set [1] (setting [6]) was 0% each time. In data set [1] (setting [7]), the “Eating Area (%) 96 h” value was greater than 30%. Moreover, in data set [2], the Permeability result is recorded as “- 4.8 ± 0.037”. For the same molecule, in data set [3] (pH 7.4, aqueous buffer), the solubility is 486 µM and 248 µg/mL. In data set [4], the logP worked out at 2.59.

Take `CNC(=O)c1cc(S(C)(=O)=O)cc(C)c1NC(=O)c1cc(Br)nn1-c1ncccc1Cl` [Compound 16b, 3-Bromo-1-(3-chloropyridin-2-yl)-N-(2-methyl-6-(methylcarbamoyl)-4-(methylsulfonyl)phenyl)-1H-pyrazole-5-carboxamide]: the mortality in data set [1] (setting [5]) and in data set [1] (setting [6]) was 0% each time. Further, the “Eating Area (%) 96 h” value in data set [1] (setting [7]) is greater than 30%. In addition, in data set [2], the Permeability result is “- 4.5 ± 0.030”. In addition, the solubility in data set [3] (pH 7.4, aqueous buffer) is 124 µM and 65.6 µg/mL. Further, in data set [4], the logP stood at 3.04.

`CNC(=O)c1cc(S(C)=NC(=O)C(F)(F)F)cc(C)c1NC(=O)c1cc(Br)nn1-c1ncccc1Cl` (stereo not shown) [Compound 15a, 3-Bromo-1-(3-chloropyridin-2-yl)-N-(2-methyl-4-(S-methyl-N-(2,2,2-trifluoroacetyl)sulfinimidoyl)-6-(methylcarbamoyl)phenyl)-1H-pyrazole-5-carboxamide]: the mortality at 50 ppm in data set [1] (24 h, read-out: Larvicidal activity (%) at 24 h, Average, 24 h, 50 ppm, average of three replicates) stood at 0%; in data set [1] (24 h, read-out: Larvicidal activity (%) at 24 h, replicate 1, 24 h, 50 ppm), 0%; in data set [1] (24 h, read-out: Larvicidal activity (%) at 24 h, replicate 2, 24 h, 50 ppm), 0%; in data set [1] (24 h, read-out: Larvicidal activity (%) at 24 h, replicate 3, 24 h, 50 ppm), 0%; in data set [1] (48 h, read-out: Larvicidal activity (%) at 48 h, Average, 48 h, 50 ppm, average of three replicates), 0%; in data set [1] (48 h, read-out: Larvicidal activity (%) at 48 h, replicate 1, 48 h, 50 ppm), 0%. Besides, the mortality at 50 ppm in data set [1] (48 h, read-out: Larvicidal activity (%) at 48 h, replicate 2, 48 h, 50 ppm) was 0%; in data set [1] (48 h, read-out: Larvicidal activity (%) at 48 h, replicate 3, 48 h, 50 ppm), 0%; in data set [1] (72 h, read-out: Larvicidal Activity (%) at Time (h) 72 h, third instar larvae of S. litura, 72 h, concentration of 14 and 15a 50 ppm) it was 46.7%; in data set [1] (72 h, read-out: Larvicidal activity (%) at 72 h, replicate 1, 72 h, 50 ppm) it was 50%; in data set [1] (72 h, read-out: Larvicidal activity (%) at 72 h, replicate 2, 72 h, 50 ppm), 40%; in data set [1] (72 h, read-out: Larvicidal activity (%) at 72 h, replicate 3, 72 h, 50 ppm), 50%. The mortality at 50 ppm in data set [1] (96 h, read-out: Larvicidal Activity (%) at Time (h) 96 h, third instar larvae of S. litura, 96 h, concentration of 14 and 15a 50 ppm) is 53.3%; in data set [1] (96 h, read-out: Larvicidal activity (%) at 96 h, replicate 1, 96 h, 50 ppm) it was 50%; in data set [1] (96 h, read-out: Larvicidal activity (%) at 96 h, replicate 2, 96 h, 50 ppm), 50%; in data set [1] (96 h, read-out: Larvicidal activity (%) at 96 h, replicate 3, 96 h, 50 ppm) it was 60%. The “Eating Area (%) 96 h” value in data set [1] (setting [7]) was 5–10%. Moreover, the Permeability entry in data set [2] is on record as “- 4.5 ± 0.059”. Also, in data set [3] (pH 7.4, aqueous buffer), the solubility is 397 µM and 241 µg/mL. This molecule registered a logP in data set [4] of 3.74.

As to `CNC(=O)c1cc(S(C)(=O)=NC(=O)C(F)(F)F)cc(C)c1NC(=O)c1cc(Br)nn1-c1ncccc1Cl` (stereo not shown) [Compound 16a, 3-Bromo-1-(3-chloropyridin-2-yl)-N-(2-methyl-4-(S-methyl-N-(2,2,2-trifluoroacetyl)sulfonimidoyl)-6-(methylcarbamoyl)phenyl)-1H-pyrazole-5-carboxamide], the mortality in data set [1] (setting [5]) and in data set [1] (setting [6]) was 0% each time. For the same molecule, in data set [1] (setting [7]), the “Eating Area (%) 96 h” value was greater than 30%. For the same molecule, the Permeability result in data set [2] is recorded as “- 4.7 ± 0.075”. In addition, the solubility in data set [3] (pH 7.4, aqueous buffer) is 397 µM and 247 µg/mL. In data set [4], the logP came out at 4.95.
